From ChEMBL document CHEMBL1641539 (Bioorg Med Chem Lett, 2011)

Assays:
[1] = biological target: Tyrosine-protein kinase Fyn (Homo sapiens) (UniProt P06241); assay: Inhibition of human Fyn at 10 uM after 60 mins by TR-FRET assay; details: values are per cent of control
[2] = biological target: Dual specificity mitogen-activated protein kinase kinase 7 (Homo sapiens) (UniProt O14733); assay: Inhibition of human MKK7beta at 10 uM after 60 mins by TR-FRET assay; details: values are per cent of control
[3] = biological target: Tyrosine-protein kinase receptor TYRO3 (Homo sapiens) (UniProt Q06418); assay: Inhibition of human Rse at 10 uM after 60 mins by TR-FRET assay; details: values are per cent of control
[4] = biological target: High affinity nerve growth factor receptor (Homo sapiens) (UniProt P04629); assay: Inhibition of human TrkA at 10 uM after 60 mins by TR-FRET assay; details: values are per cent of control
Chain of High affinity nerve growth factor receptor (Homo sapiens) (P04629 33-796 limits assumed): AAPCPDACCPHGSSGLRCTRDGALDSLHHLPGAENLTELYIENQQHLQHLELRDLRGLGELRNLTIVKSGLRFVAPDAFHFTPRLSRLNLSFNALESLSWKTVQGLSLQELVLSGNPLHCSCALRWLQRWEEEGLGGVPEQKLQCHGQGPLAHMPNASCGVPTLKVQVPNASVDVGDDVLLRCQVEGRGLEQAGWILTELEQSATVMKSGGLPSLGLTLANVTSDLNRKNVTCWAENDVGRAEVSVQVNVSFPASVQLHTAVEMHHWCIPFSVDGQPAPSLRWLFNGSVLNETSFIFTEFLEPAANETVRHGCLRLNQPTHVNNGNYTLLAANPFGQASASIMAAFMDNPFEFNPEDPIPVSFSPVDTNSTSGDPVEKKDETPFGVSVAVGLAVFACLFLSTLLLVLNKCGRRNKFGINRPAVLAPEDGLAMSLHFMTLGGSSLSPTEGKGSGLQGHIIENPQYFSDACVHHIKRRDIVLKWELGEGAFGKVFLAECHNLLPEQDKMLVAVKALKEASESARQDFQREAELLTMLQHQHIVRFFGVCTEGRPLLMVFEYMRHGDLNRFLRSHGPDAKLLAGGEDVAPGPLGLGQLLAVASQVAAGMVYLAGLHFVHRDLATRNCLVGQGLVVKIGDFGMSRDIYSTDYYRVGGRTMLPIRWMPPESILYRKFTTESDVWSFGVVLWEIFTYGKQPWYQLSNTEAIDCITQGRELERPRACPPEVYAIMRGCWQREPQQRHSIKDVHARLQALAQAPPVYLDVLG

[5] = tested on: Epidermal growth factor receptor (Homo sapiens), P00533 [L858R,T790M]; details: 10 uM
Chain of Epidermal growth factor receptor (Homo sapiens), P00533 [L858R,T790M] (P00533 whole entry T790M/L858R, looked up): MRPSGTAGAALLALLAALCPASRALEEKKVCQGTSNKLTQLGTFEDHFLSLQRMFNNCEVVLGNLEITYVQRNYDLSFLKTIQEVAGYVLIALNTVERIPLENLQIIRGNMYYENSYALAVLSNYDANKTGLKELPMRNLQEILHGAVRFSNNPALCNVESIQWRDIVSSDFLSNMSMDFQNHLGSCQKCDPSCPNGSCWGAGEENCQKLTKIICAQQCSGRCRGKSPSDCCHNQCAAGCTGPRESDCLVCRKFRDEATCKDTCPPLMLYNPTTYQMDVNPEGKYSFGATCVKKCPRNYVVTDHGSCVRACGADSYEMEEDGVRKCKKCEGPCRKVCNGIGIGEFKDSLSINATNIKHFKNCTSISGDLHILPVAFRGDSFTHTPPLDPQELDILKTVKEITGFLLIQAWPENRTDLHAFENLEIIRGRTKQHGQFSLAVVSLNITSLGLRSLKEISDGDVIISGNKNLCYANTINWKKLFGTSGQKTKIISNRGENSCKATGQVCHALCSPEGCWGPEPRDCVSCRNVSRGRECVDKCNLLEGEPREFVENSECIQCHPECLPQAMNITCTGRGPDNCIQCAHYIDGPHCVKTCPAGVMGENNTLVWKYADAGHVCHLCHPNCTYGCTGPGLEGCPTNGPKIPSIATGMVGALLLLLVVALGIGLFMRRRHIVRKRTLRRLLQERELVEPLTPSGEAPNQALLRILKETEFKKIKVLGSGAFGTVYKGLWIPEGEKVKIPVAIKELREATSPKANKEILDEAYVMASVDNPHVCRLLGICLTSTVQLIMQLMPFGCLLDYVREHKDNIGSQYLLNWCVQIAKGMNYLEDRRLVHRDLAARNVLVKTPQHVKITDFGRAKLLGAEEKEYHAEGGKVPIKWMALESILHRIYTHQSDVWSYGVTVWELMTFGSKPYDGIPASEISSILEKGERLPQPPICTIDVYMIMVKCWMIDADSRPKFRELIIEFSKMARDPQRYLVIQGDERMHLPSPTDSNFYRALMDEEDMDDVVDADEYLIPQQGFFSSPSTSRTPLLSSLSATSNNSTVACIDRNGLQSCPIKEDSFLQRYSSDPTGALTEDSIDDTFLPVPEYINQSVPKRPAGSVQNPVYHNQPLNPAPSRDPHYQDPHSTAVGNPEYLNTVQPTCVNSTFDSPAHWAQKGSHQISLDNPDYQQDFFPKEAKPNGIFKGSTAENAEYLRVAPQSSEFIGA
Description: Inhibition of human EGFR T790M, L858R mutant at 10 uM after 60 mins by TR-FRET assay

[6] = biological target: Tyrosine-protein kinase Fes/Fps (Homo sapiens) (UniProt P07332); assay: Inhibition of human Fes at 10 uM after 60 mins by TR-FRET assay; values are per cent of control
Chain of Tyrosine-protein kinase Fes/Fps (Homo sapiens) (P07332 whole entry): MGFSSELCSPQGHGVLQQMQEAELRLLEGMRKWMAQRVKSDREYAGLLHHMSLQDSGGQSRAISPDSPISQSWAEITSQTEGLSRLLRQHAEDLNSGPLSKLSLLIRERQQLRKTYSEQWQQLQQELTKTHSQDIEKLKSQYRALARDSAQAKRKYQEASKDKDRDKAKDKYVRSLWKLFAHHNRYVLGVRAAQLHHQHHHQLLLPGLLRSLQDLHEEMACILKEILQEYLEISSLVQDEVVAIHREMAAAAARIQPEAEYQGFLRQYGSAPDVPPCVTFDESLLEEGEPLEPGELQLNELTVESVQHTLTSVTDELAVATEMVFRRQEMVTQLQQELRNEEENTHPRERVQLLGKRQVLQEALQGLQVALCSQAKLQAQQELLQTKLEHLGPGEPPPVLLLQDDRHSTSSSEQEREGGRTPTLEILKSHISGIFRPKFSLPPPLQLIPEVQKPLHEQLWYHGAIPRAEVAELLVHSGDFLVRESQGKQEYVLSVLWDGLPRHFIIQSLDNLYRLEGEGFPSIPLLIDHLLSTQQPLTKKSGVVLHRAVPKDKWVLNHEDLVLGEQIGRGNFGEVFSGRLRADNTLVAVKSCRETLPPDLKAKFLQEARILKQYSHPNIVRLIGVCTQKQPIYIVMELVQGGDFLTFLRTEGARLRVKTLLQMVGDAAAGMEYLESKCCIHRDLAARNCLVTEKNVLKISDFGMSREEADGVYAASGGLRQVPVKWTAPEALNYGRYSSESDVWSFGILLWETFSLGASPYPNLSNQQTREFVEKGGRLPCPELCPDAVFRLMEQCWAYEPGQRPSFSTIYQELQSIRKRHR

[7] = biological target: Mitogen-activated protein kinase kinase kinase kinase 2 (Homo sapiens) (UniProt Q12851); assay: Inhibition of human GCK at 10 uM after 60 mins by TR-FRET assay; values are per cent of control
Saccharomyces cerevisiae = assay: Inhibition of yeast CK1 at 10 uM after 60 mins by TR-FRET assay; values are per cent of control
[8] = biological target: Serine/threonine-protein kinase STK11 (Homo sapiens) (UniProt Q15831); assay: Inhibition of human LKB1 at 10 uM after 60 mins by TR-FRET assay; values are per cent of control
[9] = biological target: Maternal embryonic leucine zipper kinase (Homo sapiens) (UniProt Q14680); assay: Inhibition of human MELK at 10 uM after 60 mins by TR-FRET assay; values are per cent of control
[10] = biological target: Serine/threonine-protein kinase Nek3 (Homo sapiens) (UniProt P51956); assay: Inhibition of human NEK3 at 10 uM after 60 mins by TR-FRET assay; values are per cent of control
Chain of Serine/threonine-protein kinase Nek3 (Homo sapiens) (P51956 whole entry): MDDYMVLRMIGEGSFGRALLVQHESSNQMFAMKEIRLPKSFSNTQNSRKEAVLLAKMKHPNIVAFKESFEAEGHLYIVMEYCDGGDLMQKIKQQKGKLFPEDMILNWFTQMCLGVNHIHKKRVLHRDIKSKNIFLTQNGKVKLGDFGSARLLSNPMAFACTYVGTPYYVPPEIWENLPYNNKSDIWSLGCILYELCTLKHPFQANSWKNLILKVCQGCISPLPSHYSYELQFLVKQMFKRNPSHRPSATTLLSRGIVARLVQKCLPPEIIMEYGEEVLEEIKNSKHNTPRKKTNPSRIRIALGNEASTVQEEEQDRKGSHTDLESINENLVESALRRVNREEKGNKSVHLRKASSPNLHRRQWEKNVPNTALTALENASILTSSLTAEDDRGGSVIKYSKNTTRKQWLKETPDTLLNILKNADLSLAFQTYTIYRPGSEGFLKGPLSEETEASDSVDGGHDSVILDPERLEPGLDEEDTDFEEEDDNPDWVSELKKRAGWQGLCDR

[11] = biological target: Serine/threonine-protein kinase TAO2 (Homo sapiens) (UniProt Q9UL54); assay: Inhibition of human TAO2 at 10 uM after 60 mins by TR-FRET assay; values are per cent of control
[12] = biological target: Activin receptor type-1B (Homo sapiens) (UniProt P36896); assay: Inhibition of human ALK4 at 10 uM after 60 mins by TR-FRET assay; values are per cent of control
Chain of Activin receptor type-1B (Homo sapiens) (P36896 whole entry): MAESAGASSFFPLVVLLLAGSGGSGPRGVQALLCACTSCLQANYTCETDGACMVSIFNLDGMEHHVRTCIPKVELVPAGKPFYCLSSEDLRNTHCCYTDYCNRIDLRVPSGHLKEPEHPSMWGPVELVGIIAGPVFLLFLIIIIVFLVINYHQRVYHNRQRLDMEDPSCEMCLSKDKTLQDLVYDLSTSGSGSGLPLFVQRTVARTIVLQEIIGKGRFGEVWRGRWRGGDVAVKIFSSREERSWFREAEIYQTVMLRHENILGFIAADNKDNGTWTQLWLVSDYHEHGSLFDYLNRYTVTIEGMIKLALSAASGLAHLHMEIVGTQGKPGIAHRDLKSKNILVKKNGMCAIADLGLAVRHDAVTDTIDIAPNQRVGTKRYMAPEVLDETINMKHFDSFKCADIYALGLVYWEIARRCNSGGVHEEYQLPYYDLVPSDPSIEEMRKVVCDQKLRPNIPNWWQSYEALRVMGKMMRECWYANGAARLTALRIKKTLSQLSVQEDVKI

[13] = biological target: Dual specificity protein kinase CLK2 (Homo sapiens) (UniProt P49760); assay: Inhibition of human CLK2 at 10 uM after 60 mins by TR-FRET assay; values are per cent of control
[14] = biological target: Dual specificity protein kinase CLK3 (Homo sapiens) (UniProt P49761); assay: Inhibition of human CLK3 at 10 uM after 60 mins by TR-FRET assay; values are per cent of control
[15] = biological target: Tyrosine-protein kinase FRK (Homo sapiens) (UniProt P42685); assay: Inhibition of human PTK5 at 10 uM after 60 mins by TR-FRET assay; values are per cent of control
[16] = biological target: Ephrin type-B receptor 1 (Homo sapiens) (UniProt P54762); assay: Inhibition of human EphB1 at 10 uM after 60 mins by TR-FRET assay; values are per cent of control
[17] = biological target: Serine/threonine-protein kinase Nek11 (Homo sapiens) (UniProt Q8NG66); assay: Inhibition of human NEK11 at 10 uM after 60 mins by TR-FRET assay; values are per cent of control
[18] = biological target: SRSF protein kinase 1 (Homo sapiens) (UniProt Q96SB4); assay: Inhibition of human SRPK1 at 10 uM after 60 mins by TR-FRET assay; values are per cent of control
[19] = biological target: Serine/threonine-protein kinase BRSK2 (Homo sapiens) (UniProt Q8IWQ3); assay: Inhibition of human BrSK2 at 10 uM after 60 mins by TR-FRET assay; values are per cent of control
[20] = biological target: Proto-oncogene tyrosine-protein kinase Src (Homo sapiens) (UniProt P12931); assay: Inhibition of human c-SRC at 10 uM after 60 mins by TR-FRET assay; values are per cent of control
[21] = biological target: Death-associated protein kinase 2 (Homo sapiens) (UniProt Q9UIK4); assay: Inhibition of human DAPK2 at 10 uM after 60 mins by TR-FRET assay; values are per cent of control
[22] = biological target: cGMP-dependent protein kinase 1 (Homo sapiens) (UniProt Q13976); assay: Inhibition of human PKG1beta at 10 uM after 60 mins by TR-FRET assay; values are per cent of control
[23] = biological target: Casein kinase I isoform gamma-3 (Homo sapiens) (UniProt Q9Y6M4); assay: Inhibition of human CK1gamma3 at 10 uM after 60 mins by TR-FRET assay; values are per cent of control
[24] = biological target: Platelet-derived growth factor receptor alpha (Homo sapiens) (UniProt P16234); assay: Inhibition of human PDGFRalpha at 10 uM after 60 mins by TR-FRET assay; values are per cent of control
[25] = tested on: Angiopoietin-1 receptor (Homo sapiens), Q02763 [R849W]; assay: Inhibition of human Tie2 R849W mutant at 10 uM after 60 mins by TR-FRET assay; values are per cent of control
Chain of Angiopoietin-1 receptor (Homo sapiens), Q02763 [R849W] (Q02763 whole entry R849W): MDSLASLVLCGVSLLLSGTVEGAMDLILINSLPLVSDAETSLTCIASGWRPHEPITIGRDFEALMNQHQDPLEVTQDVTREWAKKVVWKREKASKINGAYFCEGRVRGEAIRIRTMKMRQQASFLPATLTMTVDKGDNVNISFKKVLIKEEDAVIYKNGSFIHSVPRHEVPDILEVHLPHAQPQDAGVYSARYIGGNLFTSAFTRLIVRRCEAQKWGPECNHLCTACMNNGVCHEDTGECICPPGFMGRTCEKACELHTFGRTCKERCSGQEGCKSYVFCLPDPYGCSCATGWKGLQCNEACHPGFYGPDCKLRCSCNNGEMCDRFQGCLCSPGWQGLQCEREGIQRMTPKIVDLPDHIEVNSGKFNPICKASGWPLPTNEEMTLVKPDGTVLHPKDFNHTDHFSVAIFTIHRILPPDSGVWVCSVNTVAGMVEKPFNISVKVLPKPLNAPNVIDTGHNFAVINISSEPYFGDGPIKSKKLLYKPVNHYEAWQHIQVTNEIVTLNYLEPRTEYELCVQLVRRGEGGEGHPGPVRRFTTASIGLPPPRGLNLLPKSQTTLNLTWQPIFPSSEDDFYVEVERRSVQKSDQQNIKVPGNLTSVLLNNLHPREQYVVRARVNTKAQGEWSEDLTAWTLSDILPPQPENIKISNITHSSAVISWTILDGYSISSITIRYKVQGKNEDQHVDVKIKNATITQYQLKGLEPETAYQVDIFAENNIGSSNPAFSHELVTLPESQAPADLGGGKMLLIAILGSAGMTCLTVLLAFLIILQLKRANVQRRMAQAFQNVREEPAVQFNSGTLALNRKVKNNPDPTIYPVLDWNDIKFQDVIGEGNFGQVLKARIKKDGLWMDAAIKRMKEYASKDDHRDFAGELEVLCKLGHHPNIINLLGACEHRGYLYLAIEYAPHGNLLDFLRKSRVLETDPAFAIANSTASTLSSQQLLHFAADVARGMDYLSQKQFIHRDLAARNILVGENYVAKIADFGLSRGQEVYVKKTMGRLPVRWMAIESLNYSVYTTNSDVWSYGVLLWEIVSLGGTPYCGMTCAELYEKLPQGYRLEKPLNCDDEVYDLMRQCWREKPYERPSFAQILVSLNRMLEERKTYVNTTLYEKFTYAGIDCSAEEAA

**Q.** What does the source list for `S=c1[nH]nc(-c2ccncc2)n1-c1ccc2ccccc2c1`?
**A.** residual activity [1]: 116%; residual activity [2]: 126%; residual activity [3]: 116%; residual activity [4]: 116%; inhibition [5]: 88%; residual activity [6]: 97%; residual activity [7]: 103%; residual activity (Saccharomyces cerevisiae): 90%; residual activity [8]: 123%; residual activity [9]: 105%; residual activity [10]: 118%; residual activity [11]: 103%; residual activity [12]: 112%; residual activity [13]: 104%; residual activity [14]: 96%; residual activity [15]: 98%; residual activity [16]: 79%; residual activity [17]: 126%; residual activity [18]: 93%; residual activity [19]: 103%; residual activity [20]: 93%; residual activity [21]: 108%; residual activity [22]: 109%; residual activity [23]: 108%; residual activity [24]: 99%; residual activity [25]: 94%
